{"source": "paper PMC7982674", "about": "“XMD-17-51 Inhibits DCLK1 Kinase and Prevents Lung Cancer Progression” (Frontiers in Pharmacology, 2021)", "target": "T1, Doublecortin-like kinase 1 (DCLK1) (Homo sapiens, UniProt O15075)", "T1 construct": "Purified kinase-active DCLK1 (cat. no., 02-139, Carna Biosciences)", "T1 sequence (O15075 1-740)": "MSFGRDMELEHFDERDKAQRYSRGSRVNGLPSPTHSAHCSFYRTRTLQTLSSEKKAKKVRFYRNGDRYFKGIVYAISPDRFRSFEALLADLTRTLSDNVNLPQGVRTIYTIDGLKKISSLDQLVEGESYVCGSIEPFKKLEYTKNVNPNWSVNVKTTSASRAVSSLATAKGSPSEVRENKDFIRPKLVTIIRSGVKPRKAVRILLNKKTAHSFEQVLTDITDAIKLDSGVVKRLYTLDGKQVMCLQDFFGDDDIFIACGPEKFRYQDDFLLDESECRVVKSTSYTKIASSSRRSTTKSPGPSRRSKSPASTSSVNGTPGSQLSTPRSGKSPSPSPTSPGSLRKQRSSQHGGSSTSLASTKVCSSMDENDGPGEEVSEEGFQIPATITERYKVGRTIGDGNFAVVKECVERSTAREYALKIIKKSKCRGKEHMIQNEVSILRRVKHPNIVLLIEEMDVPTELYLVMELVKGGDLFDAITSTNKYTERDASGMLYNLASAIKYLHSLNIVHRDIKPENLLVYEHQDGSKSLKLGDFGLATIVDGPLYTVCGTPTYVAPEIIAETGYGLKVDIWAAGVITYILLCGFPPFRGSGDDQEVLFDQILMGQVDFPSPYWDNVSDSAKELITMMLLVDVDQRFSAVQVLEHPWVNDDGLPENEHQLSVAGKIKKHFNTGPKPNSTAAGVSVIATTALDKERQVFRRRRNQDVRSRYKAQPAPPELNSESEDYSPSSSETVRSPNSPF", "experiment": "cell-free kinase assay with ULight-CREBtide peptide substrate, […] ATP (Envision readout)", "assay_type": "biochemical", "data": [{"smiles": "CN1C(=O)c2ccccc2N(C)c2nc(Nc3cnn(C4CCNCC4)c3)ncc21", "note": "[XMD-17-51]", "values": [{"measurement": "IC50", "value": 14.6, "unit": "nM"}]}]}
